From the supplement of paper PMC7840683
± gives the standard deviation of the averaged measurements.

System: HepaRG
Test: LDH release cytotoxicity, % of total lysis control; higher = more cytotoxic
Details: 48 h
Procedure, shortened: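 Percent cytotoxicity was scaled between on-plate vehicle and total lysis controls, then averaged over duplicate wells. The cells were single-lot HepaRG on collagen I-coated 96-well plates, exposed for 48 h to eight-point half-log test chemical series topping at 100 µM in serum-free induction medium with 0.5% DMSO. Total lysis wells got 0.1% Triton X, and LDH in 50 µL spent medium was read as resorufin fluorescence (CytoTox-ONE, Tecan Safire).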

NC(=O)Cn1c(=O)cc(CCN2CCN(c3nccc4sccc34)CC2)c2ccc(F)cc21 [Trelanserin]
Details | LDH release cytotoxicity [%]
0.03162 µM | -2.76 ± 0.59
0.1 µM | -2.72 ± 0.22
0.3162278 µM | -2.6 ± 0.45
1 µM | -2.79 ± 0.15
3.16228 µM | -2.49 ± 0.9
10 µM | -3.23 ± 0.63
31.6228 µM | -3.19 ± 0.31
100 µM | 4.59 ± 0.19

CC(C)N(C(=O)SCC(Cl)=C(Cl)Cl)C(C)C [Tri-allate]
Details | LDH release cytotoxicity [%]
0.03162 µM | -0.887 ± 0.62
0.1 µM | -0.771 ± 0.47
0.3162278 µM | -0.223 ± 0.71
1 µM | -0.601 ± 0.42
3.16228 µM | -0.0707 ± 0.93
10 µM | -0.765 ± 0.52
31.6228 µM | 1.13 ± 1.9
100 µM | 1.48 ± 0.1

CCCCCCCCOC(=O)c1ccc(C(=O)OCCCCCCCC)c(C(=O)OCCCCCCCC)c1 [Tri-n-octyl trimellitate]
Details | LDH release cytotoxicity [%]
0.031623 µM | -2.2 ± 0.31
0.1 µM | -3.02 ± 1.1
0.316228 µM | -2.45 ± 0.77
1 µM | -1.71 ± 0.9
3.16228 µM | -2.25 ± 0.55
10 µM | -2.21 ± 0.31
31.6228 µM | -0.9931 ± 0.0017
100 µM | 1.54 ± 0.94

CC(=O)OCC(COC(C)=O)OC(C)=O [Triacetin]
Details | LDH release cytotoxicity [%]
0.03162 µM | -0.962 ± 0.12
0.1 µM | -3.22 ± 0.49
0.3162278 µM | -1.81 ± 0.69
1 µM | -1.13 ± 0.65
3.16228 µM | -1.14 ± 0.036
10 µM | -0.506 ± 0.1
31.6228 µM | 0.136 ± 0.76
100 µM | 0.128 ± 0.77

CC(C)(C)C(=O)C(Oc1ccc(Cl)cc1)n1cncn1 (centres undefined) [Triadimefon]
Details | LDH release cytotoxicity [%]
0.031939 µM | -0.92 ± 0.21
0.101 µM | -0.0413 ± 0.61
0.31939 µM | -0.707 ± 0.2
1.01 µM | -0.437 ± 0.008
3.1939004 µM | 0.192 ± 0.53
10.1 µM | -0.0819 ± 0.64
31.939 µM | 0.1 ± 0.59
101 µM | 0.544 ± 0.74

CC(C)(C)C(O)C(Oc1ccc(Cl)cc1)n1cncn1 (centres undefined) [Triadimenol]
Details | LDH release cytotoxicity [%]
0.03162 µM | -1.62 ± 0.58
0.1 µM | -2.06 ± 0.53
0.3162278 µM | -1.64 ± 1.5
1 µM | -1.25 ± 0.42
3.16228 µM | -1.3 ± 0.73
10 µM | -0.0607 ± 0.57
31.6228 µM | -0.253 ± 0.65
100 µM | 0.57 ± 0.18

CC12C=CC(=O)C=C1CCC1C3CC(O)C(O)(C(=O)CO)C3(C)CC(O)C12F (centres undefined) [Triamcinolone]
Details | LDH release cytotoxicity [%]
0.03162 µM | -1.85 ± 0.34
0.1 µM | -0.492 ± 0.35
0.3162278 µM | -1.39 ± 0.53
1 µM | -1.34 ± 0.22
3.16228 µM | -0.853 ± 0.06
10 µM | -0.509 ± 0.53
31.6228 µM | -0.546 ± 0.2
100 µM | 2.9 ± 0.79

CCCCSP(=O)(SCCCC)SCCCC [Tribufos]
Details | LDH release cytotoxicity [%]
0.03162 µM | -1.39 ± 0.84
0.1 µM | -0.774 ± 0.82
0.3162278 µM | -1.31 ± 0.24
1 µM | -1.25 ± 0.2
3.16228 µM | -0.815 ± 0.25
10 µM | -0.0795 ± 0.058
31.6228 µM | -0.648 ± 0.29
100 µM | 0.564 ± 0.25

CCCCN(CCCC)CCCC [Tributylamine]
Details | LDH release cytotoxicity [%]
0.03162 µM | -2.12 ± 0.98
0.1 µM | -1.33 ± 1.8
0.3162278 µM | -2.67 ± 0.73
1 µM | -2.57 ± 1
3.16228 µM | -2.21 ± 0.52
10 µM | -2.383 ± 0.0034
31.6228 µM | -2.97 ± 0.18
100 µM | 3.29 ± 1.9

CCC[CH2][Sn]([Cl])([CH2]CCC)[CH2]CCC [Tributyltin chloride]
Details | LDH release cytotoxicity [%]
0.031623 µM | 0.564 ± 1.9
0.1 µM | -3.6 ± 1.2
0.316228 µM | -2.2 ± 0.71
1 µM | -2.91 ± 0.74
3.16228 µM | -3.46 ± 0.11
10 µM | -2.765 ± 0.018
31.6228 µM | -1.81 ± 0.11
100 µM | 0.00684 ± 1.1

C=C(C)C(=O)[O][Sn]([CH2]CCC)([CH2]CCC)[CH2]CCC [Tributyltin methacrylate]
Details | LDH release cytotoxicity [%]
0.03162 µM | -1.27 ± 0.67
0.1 µM | -1.27 ± 0.21
0.3162278 µM | -0.912 ± 0.44
1 µM | -1.5 ± 0.47
3.16228 µM | 37.9 ± 0.45
10 µM | 56.38 ± 0.14
31.6228 µM | 55.58 ± 0.35
100 µM | 59.2 ± 1.2

COP(=O)(OC)C(O)C(Cl)(Cl)Cl (centres undefined) [Trichlorfon]
Details | LDH release cytotoxicity [%]
0.03162 µM | 0.0437 ± 1.6
0.1 µM | -1.39 ± 0.081
0.3162278 µM | -0.758 ± 0.2
1 µM | -1.43 ± 0.39
3.16228 µM | 19.7 ± 0.21
10 µM | 73.1 ± 2.5
31.6228 µM | 76.8 ± 2.2
100 µM | 76.7 ± 1.5

O=C(O)C(Cl)(Cl)Cl [Trichloroacetic acid]
Details | LDH release cytotoxicity [%]
0.03162 µM | -0.739 ± 0.85
0.1 µM | -2.11 ± 0.056
0.3162278 µM | -2.765 ± 0.0095
1 µM | -2.27 ± 0.54
3.16228 µM | -2.74 ± 0.85
10 µM | -2.07 ± 0.18
31.6228 µM | -1.13 ± 0.15
100 µM | 0.84 ± 1.1

O=C(Nc1ccc(Cl)cc1)Nc1ccc(Cl)c(Cl)c1 [Triclocarban]
Details | LDH release cytotoxicity [%]
0.03162 µM | -2.18 ± 0.41
0.1 µM | -1.67 ± 0.93
0.3162278 µM | -1.81 ± 0.65
1 µM | -1.44 ± 1.4
3.16228 µM | -1.83 ± 0.3
10 µM | -0.606 ± 2.2
31.6228 µM | -1.24 ± 0.34
100 µM | 0.167 ± 2

O=C(O)COc1nc(Cl)c(Cl)cc1Cl [Triclopyr]
Details | LDH release cytotoxicity [%]
0.03162 µM | -0.728 ± 0.43
0.1 µM | -2.08 ± 0.22
0.3162278 µM | -1.59 ± 0.14
1 µM | -1.77 ± 0.51
3.16228 µM | -1.2 ± 0.3
10 µM | 0.578 ± 0.15
31.6228 µM | 34.7 ± 3.1
100 µM | 45.6 ± 2.5

Oc1cc(Cl)ccc1Oc1ccc(Cl)cc1Cl [Triclosan]
Details | LDH release cytotoxicity [%]
0.0322552 µM | -1.38 ± 0.38
0.102 µM | -2.17 ± 0.73
0.322552 µM | -2.07 ± 0.23
1.02 µM | -1.47 ± 0.84
3.2255232 µM | -2.05 ± 1.2
10.2 µM | -1.6 ± 1.3
32.2552 µM | -1.09 ± 1.9
102 µM | -1.09 ± 0.31

CCCCCCCCCCCCCN1CC(C)OC(C)C1 (centres undefined) [Tridemorph]
Details | LDH release cytotoxicity [%]
0.0322552 µM | -2.04 ± 1.1
0.102 µM | -2.33 ± 0.85
0.322552 µM | -1.56 ± 0.26
1.02 µM | -2.46 ± 1
3.2255232 µM | -1.14 ± 0.89
10.2 µM | -0.844 ± 0.88
32.2552 µM | -0.534 ± 0.43
102 µM | 71.8 ± 7.5

OCCN(CCO)CCO [Triethanolamine]
Details | LDH release cytotoxicity [%]
0.03162 µM | -0.32 ± 0.27
0.1 µM | -0.911 ± 0.6
0.3162278 µM | -1.61 ± 0.09
1 µM | -1.26 ± 0.23
3.16228 µM | -1.19 ± 1.4
10 µM | -0.416 ± 1.2
31.6228 µM | -0.346 ± 0.72
100 µM | 1.04 ± 0.38
